Common to all, as to test: NCI-60 cell line screen, 48 h
Test [1] has as its system SNB-78 CNS.
The subject of test [2] is DMS 273 small cell lung.
Test [3] relates to DMS 114 small cell lung.
In test [4] the test system is HOP-18 NSCLC.
The subject of test [5] is XF 498 CNS.
Test [6] has as its system BT-549 breast.
The test system of test [7] is DU-145 prostate.
Test [8] has as its system MDA-MB-435.
Test [9] deals with PC-3 prostate.

Structures are written as SMILES.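 A five-concentration, 48-hour dose response in 96-well plates underlies each endpoint, interpolated linearly between surrounding concentrations. GI50: concentration for 50% inhibition of growth. TGI is the concentration that stops growth completely.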 Where a SMILES comes first, the peptide text is derived from it. [ ]: non-standard residue; d: D form. The star is where a group is joined. ξ: configuration not given here. NMeN = CN[C@@H](CC(N)=O)C(=O)O; NMeV = CN[C@H](C(=O)O)C(C)C; ξNMeV = CNC(C(=O)O)C(C)C; Boc = CC(C)(C)OC(=O)*; ξNMeA = CNC(C)C(=O)O

For the molecule `COc1ccc(C(=O)OC2C=COC(C)C2OC(=O)c2ccc(OC)cc2)cc1` (centres undefined), the TGI was more than 100 µM in test [1]; 73.6 µM in test [2]; 37.1 µM in [3]; more than 61.1 µM in test [4]; more than 61.8 µM in test [5].

In the case of `CN(C)CC/C(=N\Nc1ccccc1)c1ccccc1`, the TGI was 89.7 µM in test [1], more than 100 µM in test [3], more than 100 µM in test [4] and 23.4 µM in test [5].

In the case of `O=C(Nc1ccc(F)cc1)C(=O)C(C1OC(=O)c2ccccc21)[N+](=O)[O-]` (centres undefined), the TGI in test [1], in [3] and in test [5] was more than 100 µM throughout.

Consider `COC(=O)C(=O)C(C#N)c1ccc(CC#N)cc1` (centres undefined), for which the TGI in test [1], in test [2] and in test [5] was more than 100 µM in each case.

Consider `Cc1cc(C)nc(NS(=O)(=O)c2ccc(Nc3c4ccc(Cl)cc4nc4c(C(=O)Nc5ccc(S(=O)(=O)N=C(N)N)cc5)cccc34)cc2)n1`, for which the TGI in test [1], in test [3] and in [5] was more than 100 µM each time.

In the case of `COC(=O)C12C3C4C5C3(C#N)C1C5(C(=O)OC)C42C(=O)N(C(C)C)C(C)C` (centres undefined), the TGI is more than 100 µM in test [1]; more than 59.3 µM in test [2]; more than 100 µM in [3]; more than 100 µM in test [4]; more than 100 µM in test [5].

Turning to `CCCCc1ccc(-n2c3nc(=O)n(C)c(=O)c-3nc3ccccc32)cc1`, the TGI amounted to 39 µM in test [1]; 26.4 µM in test [2]; 18.5 µM in [3]; 22.7 µM in test [4]; 32.4 µM in [5].

Consider `C1CCN(C2OC3C(COC3N3CCCCC3)OC2OC2CCO[C@@H]2N2CCCCC2)CC1` (some centres undefined), for which the TGI in [1] was 56.1 µM; in test [2], more than 100 µM; in test [3], 54.7 µM; in [5], 37.3 µM.

`CC[O-].CC[O-].O=C1C(c2ccccc2)=C([O-])c2ccccc21.O=C1C(c2ccccc2)=C([O-])c2ccccc21.[Ti+4]`: the GI50 in test [1], in test [2], in test [3] and in test [4] was more than 100 µM each time. Besides, the TGI in [1], in test [2], in [3] and in test [4] was more than 100 µM each time.

Turning to `COC(=O)C(C)N(C)C(=O)[C@H](CC(N)=O)N(C)C(=O)[C@@H]1CCCN1C(=O)[C@H](C(C)C)N(C)C(=O)C(C(C)C)N(C)C(=O)[C@@H](NC(=O)OC(C)(C)C)C(C)C` (some centres undefined) (Boc-V[ξNMeV][NMeV]P[NMeN][ξNMeA]-OMe), the TGI is more than 50 µM in [6]; more than 50 µM in test [7]; more than 100 µM in test [1]; more than 100 µM in test [2]; more than 100 µM in test [4]; more than 50 µM in test [8]. Besides, the TGI in [5] is more than 100 µM; in test [9], 50 µM.

As for `CCCCCCCCCCC(O)C1CCC(C(O)CCC(O)C2CCC(CCCCCCC[C@H](O)CC3=C[C@@H](C)OC3=O)O2)O1` (some centres undefined), the TGI in [6] is 2.26 µM; in [1], more than 100 µM; in [2] it was more than 100 µM; in test [4], more than 100 µM; in test [5] it was more than 100 µM.

Turning to `COC1OC(C)C(O)CC1OS(=O)(=O)c1ccc(C)cc1` (centres undefined), the TGI in test [1], in test [2], in test [3] and in test [4] was more than 100 µM each time.

As for `CCN(CC)CCNC(=O)c1nn(C)c(=S)[nH]c1=S`, the TGI in test [1], in [2], in [3], in test [4] and in test [5] was more than 100 µM in each case.

Take `CC(=O)N/C(=C\c1cccc([N+](=O)[O-])c1)c1nc2c3c(ccc2[nH]1)C(=O)c1ccccc1C3=O`: the TGI in test [1], in test [3] and in test [5] was more than 100 µM in each case.

As for `Nc1nc(=S)[nH]c(C(=O)Nc2ccc(Cl)c(Cl)c2)c1-c1ccc(Cl)cc1`, the TGI in test [3], in [4] and in test [5] was more than 100 µM throughout.

For the molecule `CCOC(=O)NC(=O)c1cn(CCCOC(=O)CCCCCCCCCCC(=O)OCCCn2cc(C(=O)NC(=O)OCC)c(=O)n(C)c2=O)c(=O)n(C)c1=O`, the TGI in [1], in test [2], in test [3], in test [4] and in test [5] was more than 100 µM in each case.

With `CCc1nc(N)nc(C(=O)NCCNC(=O)c2nc(N)nc(CC)c2C)c1C`, the TGI in test [1], in [2], in [3], in [4] and in [5] was more than 100 µM throughout.

On to `CC(=O)/C(=C\C1=CCCO1)C(=O)Nc1ccccc1C`, for which the TGI in test [1], in test [3], in test [4] and in test [5] was more than 100 µM throughout.

Turning to `CC(=O)Nc1c(C)ccc2c1C(=O)c1ccccc1C2=O`, the TGI in test [1], in [2], in [3] and in test [4] was more than 100 µM in each case.

With `COC(=O)C12CC3CC(C1)CC(C(=O)OC)(C3)C2`, the TGI in [1], in test [2], in test [3], in test [4] and in test [5] was more than 100 µM each time.

Turning to `Cc1nc2cc(N)c(F)cc2[nH]1`, the TGI in test [1], in [2], in test [3] and in [5] was more than 100 µM each time.

Turning to `CCn1c(O)c(C=N)c(=O)n(CC)c1=O`, the TGI in test [1], in [2], in test [3] and in test [4] was more than 100 µM in each case.

On to `O=C1c2ccccc2C2(O)NC(=S)N(c3ccccc3)C12O` (centres undefined), for which the TGI in [1], in test [3], in test [4] and in test [5] was more than 100 µM throughout.

`CCOC(=O)C1=C(Nc2ccc(Cl)cc2Cl)OC/C1=N\NS(=O)(=O)c1ccc(C)cc1`: the TGI in test [1], in test [2], in test [3] and in [4] was more than 100 µM each time.

For the molecule `CSc1nc(NC(=O)O)c(N(C(C)=O)C(=O)O)c(=O)n1C`, the TGI in [1], in [2], in [3] and in test [5] was more than 100 µM in each case.

In the case of `NC(=S)N/N=C(\C(=O)Nc1cccc([N+](=O)[O-])c1)c1nc2ccc([N+](=O)[O-])cc2[nH]c1=O`, the TGI in [2], in test [3], in test [4] and in test [5] was more than 100 µM throughout.

Consider `CCC[CH2][Sn]([CH2]CCC)([O]C(=O)C(N)CSC)[O]C(=O)C(N)CSC` (centres undefined), for which the GI50 in test [1] was 3.17 µM; in [3], 2.72 µM; in test [4], 10.2 µM; in [5] it was 5.54 µM. The TGI in test [1] was 9.64 µM; in test [3], 12.8 µM; in [4], 21.8 µM; in test [5], 19 µM.

Regarding `C[C@]12CC[C@H](OCCC#N)CC1=CC[C@@H]1C2CC[C@]2(C)/C(=N/OCCC#N)CCC12` (some centres undefined), the TGI in test [1] is more than 90 µM; in test [2], more than 100 µM; in test [3], more than 100 µM; in test [4], more than 100 µM; in test [5] it was 48.9 µM.

As to `Cc1cccc(C)c1NC(=O)CCc1nnc2s/c(=C\c3ccc(Cl)cc3)c(=O)n12`, the TGI in test [1], in test [2], in [3], in test [4] and in test [5] was more than 100 µM throughout.

In the case of `O=c1ccnc2c1ccc1[nH]cccc12`, the TGI in test [1], in test [2], in test [3] and in test [4] was more than 100 µM throughout.

Regarding `COc1ccc2cc3[n+](cc2c1OC)CCc1cc(O)c(O)cc1-3`, the TGI in [1], in test [2], in test [3] and in test [5] was more than 100 µM each time.

With `Cc1ccc(NC(=O)CC(=O)n2nc(-c3ccccc3)c(N=Nc3ccccc3Cl)c2-c2ccccc2)cc1`, the TGI in test [2], in test [3], in test [4] and in test [5] was more than 100 µM in each case. The GI50 in test [3] was more than 100 µM.

Consider `O=C(O)CC12C3C4C5C3C1C5C42` (centres undefined), for which the TGI in test [1], in test [2], in test [3] and in test [5] was more than 100 µM in each case.

For the molecule `COC(=O)C12CC(c3ccccc31)C1C(=O)OC(=O)C12` (centres undefined), the TGI in test [1], in test [2], in test [3] and in test [5] was more than 100 µM in each case.

These data come from PubChem BioAssay (NCI).
